{"source": "ChEMBL document CHEMBL1145004", "about": "“3-(4-[[Benzyl(methyl)amino]methyl]phenyl)-6,7-dimethoxy-2H-2-chromenone (AP2238) inhibits both acetylcholinesterase and acetylcholinesterase-induced beta-amyloid aggregation: a dual function lead for Alzheimer's disease therapy” (J Med Chem, 2003)", "key": {"[1]": {"target": "Acetylcholinesterase (Homo sapiens, UniProt P22303)", "sequence (P22303 whole entry)": "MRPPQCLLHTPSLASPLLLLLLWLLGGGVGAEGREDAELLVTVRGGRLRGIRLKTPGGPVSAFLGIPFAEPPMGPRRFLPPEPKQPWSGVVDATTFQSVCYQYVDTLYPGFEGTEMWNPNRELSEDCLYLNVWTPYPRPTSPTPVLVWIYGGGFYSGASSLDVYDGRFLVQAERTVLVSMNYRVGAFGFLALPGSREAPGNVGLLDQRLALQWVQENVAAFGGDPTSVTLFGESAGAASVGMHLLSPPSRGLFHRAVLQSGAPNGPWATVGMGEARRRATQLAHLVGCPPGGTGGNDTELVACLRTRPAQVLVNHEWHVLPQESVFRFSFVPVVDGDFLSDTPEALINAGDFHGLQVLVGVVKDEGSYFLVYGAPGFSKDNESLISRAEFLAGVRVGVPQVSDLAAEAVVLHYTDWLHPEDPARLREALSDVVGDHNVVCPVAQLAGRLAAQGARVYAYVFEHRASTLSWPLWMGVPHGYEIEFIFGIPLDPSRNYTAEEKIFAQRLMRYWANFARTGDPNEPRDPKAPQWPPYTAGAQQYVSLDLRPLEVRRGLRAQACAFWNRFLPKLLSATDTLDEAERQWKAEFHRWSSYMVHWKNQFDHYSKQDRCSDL", "test": "Inhibitory potency was evaluated against recombinant human AChE"}, "[2]": {"target": "Cholinesterase (Homo sapiens, UniProt P06276)", "sequence (P06276 whole entry)": "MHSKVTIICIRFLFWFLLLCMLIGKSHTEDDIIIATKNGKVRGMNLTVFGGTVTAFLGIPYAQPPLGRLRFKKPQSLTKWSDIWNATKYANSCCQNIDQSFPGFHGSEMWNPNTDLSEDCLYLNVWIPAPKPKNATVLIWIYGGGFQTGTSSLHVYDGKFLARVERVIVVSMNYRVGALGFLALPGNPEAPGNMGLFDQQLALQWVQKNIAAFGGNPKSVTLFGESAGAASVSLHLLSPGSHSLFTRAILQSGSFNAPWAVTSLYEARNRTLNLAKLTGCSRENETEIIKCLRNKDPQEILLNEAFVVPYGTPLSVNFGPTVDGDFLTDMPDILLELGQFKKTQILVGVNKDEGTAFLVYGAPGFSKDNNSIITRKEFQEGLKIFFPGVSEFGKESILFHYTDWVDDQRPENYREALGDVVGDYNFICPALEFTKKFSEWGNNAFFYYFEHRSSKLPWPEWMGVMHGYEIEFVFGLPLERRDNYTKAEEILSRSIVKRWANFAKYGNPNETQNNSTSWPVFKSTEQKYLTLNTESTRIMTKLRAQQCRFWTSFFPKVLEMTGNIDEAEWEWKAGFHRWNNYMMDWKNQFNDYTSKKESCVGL", "test": "Inhibitory potency was evaluated against isolated Butyrylcholinesterase"}}, "data": [{"smiles": "COc1cc2cc(-c3ccc(CN(C)Cc4ccccc4)cc3)c(=O)oc2cc1OC", "values": [{"measurement": "IC50", "setting": "[1]", "value": 0.0445, "unit": "µM"}, {"measurement": "Ki", "setting": "[1]", "value": 0.0217, "unit": "µM"}, {"measurement": "IC50", "setting": "[2]", "value": 48.9, "unit": "µM"}]}]}
